Earlier results, collected in patent US20190076366A1, “PHARMACEUTICAL COMPOSITION OF ENTECAVIR AND PROCESS OF MANUFACTURING” (Pharmascience, Inc., priority 2012, published 2019).

How the values were obtained:
[1] = 25°±0.5° C.

water solubility (in water): 2400 µg/mL
solubility in purified water (purified water): 2400 µg/mL
pH of the saturated solution in water [1]: 7.9
Structure (SMILES): C=C1C(n2cnc3c(=O)[nH]c(N)nc32)C[C@H](O)[C@H]1CO (stereo partly drawn) [Entecavir, 2-amino-l,9-dihydro-9-[(1S,3R,4S)-4-hydroxy-3-(hydroxymethyl)-2-methylenecyclopentyl]-6H-purin-6-one, monohydrate]
